Source: patent US20250064886A1, “CARDIOVASCULAR AND CEREBROVASCULAR DRUG AND USE THEREOF” (HANGZHOU ADAMERCK PHARMLABS INC., priority 2021, published 2025)
Marks after values point to notes of the source that are not given here.

Experiments:
[1] = test system: iron content in Erastin-induced neuronal cells; test: Iron content (PGSK probe) in Erastin-induced neuronal cells (Example 8); assay type: cell-based, rat; settings: Erastin 50 μM
Method: (§1) Experimental method: Primary neuron cells were incubated in a medium containing Erastin (final concentration of 50 μM) for 24 hours, and then incubated in a medium containing different concentrations of the test drug and Erastin (final concentration of 50 μM) for another 24 hours. After incubation, Real time PCR was used to detect mRNA expression of GPX4 in each group of cells, CCK8 assay was used to detect cell viability in each group of cells, C11-BODIPY probe method was used to detect intracellular lipid ROS levels in each group of cells, and PGSK probe method was used to detect iron content in cells.
(§2) The experimental data were expressed in means±SD, and statistical differences between groups were determined using one-way ANOVA and Tukey's test, with p-values less than 0.05 considered significant.
After incubation, the PGSK probe method was used to detect the intracellular iron content. The results were presented as Mean±SD. Compared with the control group, ***p<0.0001; Compared with the model group, #p<0.05, ##p<0.01.

GPX4 mRNA = GPX4 mRNA expression (real time PCR) in Erastin-induced neuronal cells (Example 8); assay type: cell-based, rat; settings: Erastin 50 μM
Method: as §1, §2
After incubation, real time PCR was used to detect the mRNA expression of GPX4 in each group of cells. The results were presented as Mean±SD. Compared with the control group, ***p<0.0001; Compared with the model group, #p<0.05, […].

[2] = test system: arteriovenous bypass thrombosis in rats; test: Arteriovenous bypass thrombosis in rats (Example 4); assay type: in vivo, rat; settings: for Wet weight of thrombus / Dry weight of thrombus: in g (unit assumed)
Method: Grouping: Divided into 5 groups, with 10 animals in each group. The model control group was given with solvent, and the test drug compound (1) and the positive control were given intravenously once a day for consecutive 3 d. The modeling started 30 min after the last dose.
Model preparation: 50 SD male rats were anesthetized with sodium pentobarbital at a dose of 60 mg/kg via ip. The rat was fixed in the supine position, and the skin was incised at the midline of the neck; the fascia and muscle tissues were separated, the left common carotid artery and the right external jugular vein were dissociated, and the arterio-venous (A-V) bypass surgery was performed using the polyethylene tubing with a built-in thread. The arterial clip was used to clamp the proximal end of the carotid artery, and one end of the polyethylene tubing was inserted into the artery, and another end was inserted into the vein, thereby completing the bypass surgery. 30 minutes after the last dose, the arterial clip was opened, and blood flowed from the left common carotid artery to the right external jugular vein through the bypass tubing, and the blood flow formed a bypass circulation, and the thrombus was taken out 15 min later.
Detection index: the blood flow was open after 15 min, the thread was taken out, the residual liquid was sucked dry, the thread attached with thrombus was weighed and the wet weight of thrombus was calculated; the dry weight of thrombus was weighed and calculated after bake-drying in the oven at 50° C. Thrombosis inhibition rate was calculated. Tails were clipped at the end of the experiment to detect bleeding time.

[3] = test system: vascular inflammation in high-glucose and high-fat zebrafish; test: Regressive effect on vascular inflammation in high-glucose and high-fat zebrafish (Example 9); assay type: in vivo
Method: Experimental method: 360 tails of 5 dpf macrophage fluorescent zebrafish were randomly selected and placed in beakers with 30 tails in each beaker, compound (1), compound (3), and compound (5) were given intravenously, and the positive control group was given atorvastatin calcium by dissolving it in water at a concentration of 30 μg/mL, while the normal control group (fish farming water-treated zebrafish) and the model control group were set up, and the volume of each beaker (experimental group) was 25 mL. Except for the normal control group, all other groups were given high-lipids and high-sucrose feed by dissolving it in water. Compound (1), compound (3) and compound (5) group were co-treated with high-lipids and high-sucrose feed for 30 h. The treatment was carried out up to 9 dpf, and 10 zebrafish were randomly selected from each experimental group to collect the intensity of the macrophage fluorescence within the tail vein and around the tail vein of the zebrafish under fluorescence microscope, and the results of the statistical analysis were used to evaluate the regressive effect of compound (1), compound (3), compound (5) on zebrafish vascular inflammation in the high sugar and high fat model.

[4] = test system: vascular endothelial-injury thrombosis model in zebrafish; test: Preventative effect of compound (1) on vascular endothelial injury induced thrombosis in zebrafish (Example 3); assay type: in vivo; settings: for Cardiac erythrocyte staining intensity (pixels, mean ± SE): n = 10
Method: Experimental method: Wild-type AB strain zebrafish were treated with 4 μg/mL punatinib for 18 h to establish vascular endothelial-injury thrombosis model in zebrafish. 150 of 5 dpf wild-type AB strain zebrafish were randomly selected and placed in six-well plates with 30 fish per well (experimental group). The zebrafish were injected with compound (1) at a dose of 2.06 ng/tail, and 6.18 ng/tail, and the positive control drug acetylsalicylic acid was given by dissolving it in water with a concentration of 30 µg/mL, while the normal control group (i.e., zebrafish treated with standard dilution water) and the model control group were set up, and the volume of each well (experimental group) was 3 mL. Except for normal control group, the remaining experimental groups were all given Punatinib by dissolving it in water to induce vascular endothelial injury thrombosis model in zebrafish. The zebrafish were co-treated with compound (1) and punatinib for a period of time under incubation condition at 28° C., and then stained with o-dianisidine. After staining, 10 zebrafish were randomly selected from each group and photographed under the microscope. The intensity of cardiac erythrocyte staining in zebrafish was analyzed using NIS-Elements D 3.10 advanced image-processing software, and the preventative effect of compound (I) on vascular endothelial injury thrombosis was evaluated based on the statistical results of cardiac erythrocyte staining intensity. The preventative effect on thrombosis is calculated as follows: […]
Statistical analysis were performed using Analysis of Variance and Dunnett's t-test, and p<0.05 indicates a significant difference, providing a representative experimental plot.

Structure (SMILES): CC(=O)N[C@H](CSCC1OC2OC3C(CSC[C@@H](NC(C)=O)C(=O)[O-])OC(OC4C(CSC[C@@H](NC(C)=O)C(=O)[O-])OC(OC5C(CSC[C@@H](NC(C)=O)C(=O)[O-])OC(OC6C(CSC[C@@H](NC(C)=O)C(=O)[O-])OC(OC7C(CSC[C@@H](NC(C)=O)C(=O)[O-])OC(OC8C(CSC[C@@H](NC(C)=O)C(=O)[O-])OC(OC9C(CSC[C@@H](NC(C)=O)C(=O)[O-])OC(OC1C(O)C2O)C(O)C9O)C(O)C8O)C(O)C7O)C(O)C6O)C(O)C5O)C(O)C4O)C(O)C3O)C(=O)[O-].[Na+].[Na+].[Na+].[Na+].[Na+].[Na+].[Na+].[Na+] (stereo partly drawn) [Compound (1)]
- Iron content (PGSK probe) ([1]; 1 μM, control = 100, PGSK fluorescence, weaker = more iron): 61.06 ± 7.12
- Iron content (PGSK probe) ([1]; 2.5 μM): 66.81 ± 7.21
- Iron content (PGSK probe) ([1]; 5 μM): 71.85 ± 4.47
- Iron content (PGSK probe) ([1]; 10 μM): 77.52 ± 12.88^#
- Iron content (PGSK probe) ([1]; 20 μM): 82.16 ± 6.86^##
- Iron content (PGSK probe) ([1]; 40 μM): 86.69 ± 8.01^##
- Expression of GPX4 mRNA (GPX4 mRNA; 1 μM, control about 1.00, Mean±SD): 0.4845 ± 0.06^
- Expression of GPX4 mRNA (GPX4 mRNA; 2.5 μM): 0.5759 ± 0.07^
- Expression of GPX4 mRNA (GPX4 mRNA; 5 μM): 0.6469 ± 0.08^#
- Expression of GPX4 mRNA (GPX4 mRNA; 10 μM): 0.7093 ± 0.15^##
- Expression of GPX4 mRNA (GPX4 mRNA; 20 μM): 0.7664 ± 0.08^##
- Expression of GPX4 mRNA (GPX4 mRNA; 40 μM): 0.8503 ± 0.06^##
- Dry weight inhibition rate (%) ([2]; 10 mg/kg i.v.): 15.9%
- Wet weight inhibition rate (%) ([2]; 10 mg/kg i.v.): 19.4%
- Wet weight of thrombus ([2]; 10 mg/kg i.v. once a day 3 d, x ± s, n = 10): 0.0254 ± 0.0042
- Dry weight of thrombus ([2]; 10 mg/kg i.v. once a day 3 d): 0.0069 ± 0.0014
- Dry weight inhibition rate (%) ([2]; 20 mg/kg i.v.): 26.8%
- Wet weight inhibition rate (%) ([2]; 20 mg/kg i.v.): 21.9%
- Dry weight of thrombus ([2]; 20 mg/kg i.v. once a day 3 d): 0.006 ± 0.0014
- Wet weight of thrombus ([2]; 20 mg/kg i.v. once a day 3 d): 0.0246 ± 0.0045
- Dry weight inhibition rate (%) ([2]; 40 mg/kg i.v.): 37.8%
- Wet weight inhibition rate (%) ([2]; 40 mg/kg i.v.): 34.3%
- Dry weight of thrombus ([2]; 40 mg/kg i.v. once a day 3 d): 0.0051 ± 0.0011
- Wet weight of thrombus ([2]; 40 mg/kg i.v. once a day 3 d): 0.0207 ± 0.0041
- Anti-inflammatory effect (%) ([3]; 222 ng/tail intravenous): 27*** %
- Fluorescence intensity of perivascular macrophage (pixels, Mean ± SE) ([3]; 222 ng/tail intravenous): 134308 ± 6117 pixels
- Anti-inflammatory effect (%) ([3]; 667 ng/tail intravenous): 37*** %
- Fluorescence intensity of perivascular macrophage (pixels, Mean ± SE) ([3]; 667 ng/tail intravenous): 116848 ± 5036 pixels
- Anti-inflammatory effect (%) ([3]; 2000 ng/tail intravenous): 41*** %
- Fluorescence intensity of perivascular macrophage (pixels, Mean ± SE) ([3]; 2000 ng/tail intravenous): 108154 ± 4723 pixels
- Thromboprophylactic effect (%) ([4]; 2.06 ng/tail): 83%
- Cardiac erythrocyte staining intensity (pixels, mean ± SE) ([4]; 2.06 ng/tail): 4601 ± 265 pixels
- Cardiac erythrocyte staining intensity (pixels, mean ± SE) ([4]; 2.06 ng/tail, listed as compound (1)): 4601 pixels
- Thromboprophylactic effect (%) ([4]; 6.18 ng/tail): 99%
- Cardiac erythrocyte staining intensity (pixels, mean ± SE) ([4]; 6.18 ng/tail): 5044 ± 345 pixels
- Cardiac erythrocyte staining intensity (pixels, mean ± SE) ([4]; 6.18 ng/tail, listed as compound (1)): 5044 pixels
